Assay results taken from patent US20110065674A1, “METHODS AND COMPOSITIONS FOR IMPROVING COGNITIVE FUNCTION” (priority 2008, published 2011).
Entries after “also recorded” stand apart in the source; their conditions may differ.

Tests used:
[1] = test system: Age-Impaired (AI) Long-Evans rats; test: 24 hour-delay Morris Water Maze memory retention trial in aged-impaired rats; type: in vivo, rat; settings: for spatial memory retention (time in target quadrant) in 24-hr retention trial: donepezil alone 0.5, 1.0 and 2.0 mg/kg i.p. before training
Description: Age-Impaired (AI) Long-Evans rats (as characterized above) were tested for their memory of new spatial information in the MWM, under different drug/control treatment conditions: vehicle control, donezepil only, VPA only, and combination of VPA and donezepil. Donezepil was administered at a range of doses (0.5, 1.0 or 2.0 mg/kg) 30 minutes to 1 hour prior to training trials. VPA was administered chronically and subcutaneously at a rate of 100 mg/kg/day via implanted osmotic minipump.
AI rats were given six training trials per training day with a 60-sec inter-trial interval between each training trial for two consecutive days. On each training trial, the rat was released in the maze from one of four equally spaced starting positions around the perimeter of the pool. […] 30 minutes to 1 hour prior to all the training trials on each training day, AI rats were pretreated with one of four drug conditions: 1) vehicle control (0.9% saline solution); 2) 0.5 mg/kg donpepzil; and 3) 1.0 mg/kg donpepzil; and 4) 2.0 mg/kg donpepzil through intraperitoneal (i.p.) injection.
The same AI rats were used for the entire set of experiments so that each treatment condition was tested on each of the rats. Therefore, to counterbalance any potential bias, both the location of the escape platform and the spatial cues surrounding the water maze were different in the four treatment conditions. In other words, using one set of locations and spatial cues, two rats were treated with saline control solution, two with 0.5 mg/kg donpepzil, two with 1.0 mg/kg donpepzil and two with 2.0 mg/kg donpepzil. These groups were cycled through 3 more sets of locations and spatial cues, with each group of two receiving a different treatment each time, so that at the end, each treatment condition was tested in eight rats.
After the completion of the twelve training trials (over the two days), the rats were returned to their home cages in the colony room for a 24-hr waiting period, in preparation for the subsequent memory retention test. After the waiting period, the rat was given one testing trial (the “retention trial”), which was the same MWM task as the training trials, but with the escape platform removed.
For the retention trial, the MWM circular pool was divided into 4 quadrants. The particular quadrant where the escape platform was placed in the training trials is referred to as the “target quadrant”. The particular region where the platform was located in the training trials is referred to as the “target annulus”. In the retention trial, the time the AI rats spent swimming in the target quadrant was measured and further plotted as a percentage of total swimming time. The time the AI rats spend in the target annulus was also measured. […]

[2] = test system: memory impaired aged rats; test: 6 hour-delay water maze spatial memory task in aged-impaired rats; type: in vivo, rat; settings: AI rats, FIG. 2
Description: (§1) AI Rats were treated with sodium valproate (“VPA”) chronically and subcutaneously at a rate of 100 mg/kg/day via implanted osmotic minipump, and then trained and tested in a new water maze environment. The water maze used here was housed in a different building and was surrounded by black curtains with a novel set of white patterns. The training protocol used was based on a modified water maze task known to be highly hippocampal-dependent (de Hoz et al., 2005; Steele & Morris, 1999). Unlike the traditional water maze protocol (such as that used in the background assessment, described above) wherein the escape platform location remained constant throughout training, the escape platform location in this spatial memory version of the task varied from day to day.
The test was comprised of a training phase followed by a memory retention test. Each day, during the training phase, rats were given six trials to locate the submerged escape platform. On each trial, a rat was released in the maze from one of four equally spaced starting positions around the perimeter of the pool. The starting position varied from trial to trial. […] The rat was then removed from the platform and placed in a holding cage for another 40 s before the next trial. The length of the path the rat took while swimming in the maze was measured in each trial. […]

[3] = test system: muscarinic receptor; test: Muscarinic receptor-stimulated GTP-Eu binding assay on hippocampal membranes of treated rats; type: biochemical, rat; settings: chronic low dose valproate, memory impaired aged rats, vs vehicle treated; FIG. 1
Description: Membrane preparation: Rats were decapitated and the hippocampus was dissected on ice then frozen at −80° C. All the tissue was stored in −80° C. and processed for GTP-Eu binding. For the GTP-Eu binding assay, membranes were prepared from frozen tissue by gentle homogenization with a Dounce homogenizer in five volumes of ice-cold 50 mM Tris buffer, pH 7.4, containing 0.2 mM EGTA and protease inhibitors. After centrifuging at 40,000×g at 4° C. for 10 min, the pellets were resuspended in 30 ml of ice-cold Tris buffer. The steps described above were repeated twice, and then the final pellets were resuspended in assay buffer (50 mM Tris, 0.2 mM EGTA, 5 mM MgCl2, and 100 mM NaCl, pH 7.4) (Zhang et al 2007).
Muscarinic receptor-stimulated GTP-Eu binding assay. GTP-Eu binding was assessed using time-resolved fluorescence (Wallac 1420, Perkin-Elmer). The membranes and all the reagents were diluted with assay buffer. Samples were added into a 96-well filter plate in a counter-balanced manner based upon age and behavioral performance, although the experimenter was blind to the identification of the groups at the time of the assay. […] The integration of GTP-Eu into the membrane was measured by excitation of the samples at 340 nm and reading the emission at 615 nm using time-resolved fluorescence (Zhang et al 2007, Nicolle et al 1999). […]

[4] = Blood total VPA level under chronic subcutaneous administration; type: in vivo, rat; settings: chronic subcutaneous administration of 100 mg/kg/day
Description: as §1
After the 6-hr waiting period, the rats were returned to the water maze for a test of spatial memory with the submerged platform located in the same position as in the training trials. Each rat was given 60 s to locate the platform. Rats were trained and tested in this manner for five consecutive days. Performances on the last three days were averaged for analysis. […] The chronic subcutaneous administration of 100 mg/kg/day VPA results in a blood total VPA level of 10 μg/ml plasma (10 μg/ml total VPA).

Row | Structure (SMILES) | spatial memory retention (time in target quadrant) in 24-hr retention trial ([1]; FIG. 3) | spatial memory retention (time in target quadrant) in 24-hr retention trial ([1]; FIG. 3, listed as Donezepil) | memory retention (forgetting, path length) after a 6-hr delay ([2]; VPA 100 mg/kg/day chronic s.c. minipump, vs saline or VPA 50 mg/kg/day) | performance (path length) at the end of the training phase ([2]; chronic s.c. minipump, Trials 1-6, compared with saline) | muscarinic receptor-stimulated GTP-Eu binding in the hippocampus (percentage of young rat) [3] | spatial memory retention in 24-hr retention trial ([1]; VPA only, 100 mg/kg/day chronic s.c. minipump, FIG. 3, 100 mg/kg/day) | blood total VPA level [4] [μg/ml plasma]
1 | COc1cc2c(cc1OC)C(=O)C(CC1CCN(Cc3ccccc3)CC1)C2 (stereo not shown) [donezepil, donepezil] | did not significantly improve | no effect |  |  |  |  | 
2 | CCCC(CCC)C(=O)[O-].[Na+] [VPA, sodium valproate] |  |  | showed less forgetting; also recorded: improved the performance | performed at a comparable level | effectively restore post-synaptic muscarinic coupling; also recorded: increases muscarinic receptor-GTP-Eu binding | no improvement seen | 10
